Experimental data: ChEMBL document CHEMBL3526044, “Effect of albumin on human liver microsomal and recombinant CYP1A2 activities: impact on in vitro-in vivo extrapolation of drug clearance” (Drug Metab Dispos, 2012)
Values belong to the molecule of their own block, whether it stands above or below them.

Legend:
[1] = system: Liver microsome; assay: Drug metabolism in human liver microsomes assessed as retention time treated with 25 to 8000 uM lidocaine incubated for 5 mins prior to NADPH addition measured after 25 mins by HPLC analysis; type: ADME
[2] = target: T1, Cytochrome P450 1A2 (Rattus norvegicus, UniProt P04799); assay: Competitive inhibition of rat recombinant CYP1A2 expressed in Escherichia coli assessed as inhibition of PHEN O-deethylation by dixon plot analysis; type: ADME
T1 sequence (P04799 whole entry): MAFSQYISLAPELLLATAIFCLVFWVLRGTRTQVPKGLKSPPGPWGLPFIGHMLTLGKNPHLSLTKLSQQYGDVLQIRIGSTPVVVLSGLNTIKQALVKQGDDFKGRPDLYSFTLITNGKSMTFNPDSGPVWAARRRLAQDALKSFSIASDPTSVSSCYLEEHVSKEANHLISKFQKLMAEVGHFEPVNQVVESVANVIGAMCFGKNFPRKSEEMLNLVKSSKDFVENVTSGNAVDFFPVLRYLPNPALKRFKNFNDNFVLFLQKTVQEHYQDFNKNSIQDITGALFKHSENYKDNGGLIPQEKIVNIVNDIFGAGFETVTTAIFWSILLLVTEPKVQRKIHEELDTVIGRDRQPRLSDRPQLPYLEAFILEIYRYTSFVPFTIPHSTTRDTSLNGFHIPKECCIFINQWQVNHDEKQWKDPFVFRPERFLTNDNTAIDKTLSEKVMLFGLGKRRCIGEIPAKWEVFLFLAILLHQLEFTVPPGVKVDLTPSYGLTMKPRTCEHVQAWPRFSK

[3] = system: Homo sapiens; assay: Hepatic clearance in healthy human at 250 mg, iv; type: ADME, organism-based, Liver; conditions: in vivo
[4] = target: T1, Cytochrome P450 1A2; assay: Binding affinity to rat recombinant CYP1A2 expressed in Escherichia coli assessed as fraction unbound by equilibrium dialysis method
[5] = system: Liver microsome; assay: Drug metabolism in human liver microsomes assessed as retention time at 2 to 2000 uM incubated for 5 mins prior to NADPH addition measured after 25 mins by HPLC analysis; type: ADME
[6] = Fraction unbound in human liver microsomes by equilibrium dialysis method in presence of BSA
[7] = Fraction unbound in human liver microsomes by equilibrium dialysis method
[8] = target: T1, Cytochrome P450 1A2; assay: Binding affinity to rat recombinant CYP1A2 expressed in Escherichia coli assessed as fraction unbound by equilibrium dialysis method in presence of BSA; type: ADME
[9] = system: Liver microsome; assay: (§1) Drug metabolism in human liver microsomes assessed as enzyme-mediated O-deethylation incubated for 5 mins prior to NADPH addition measured after 25 mins by Michaelis-Menten equation analysis in presence of BSA; type: ADME; conditions: microsomes, 25 min
[10] = as §1; type: ADME; conditions: liver microsomes
[11] = system: Liver microsome; assay: (§2) Drug metabolism in human liver microsomes assessed as enzyme-mediated O-deethylation incubated for 5 mins prior to NADPH addition measured after 25 mins by Michaelis-Menten equation analysis; type: ADME; conditions: microsomes, 25 min
[12] = as §2; type: ADME; conditions: liver microsomes
[13] = system: Homo sapiens; assay: Intrinsic clearance in healthy human at 250 mg, iv; type: ADME, organism-based; conditions: in vivo
[14] = Stability of the compound assessed as retention time by HPLC analysis
[15] = substrate: CCOc1ccc(NC(C)=O)cc1; assay: Activity of rat recombinant CYP1A2 expressed in Escherichia coli assessed as enzyme-mediated O-deethylation after 7.5 mins by Michaelis-Menten equation analysis in presence of BSA; type: ADME
[16] = substrate: CCOc1ccc(NC(C)=O)cc1; assay: Activity of rat recombinant CYP1A2 expressed in Escherichia coli assessed as enzyme-mediated O-deethylation after 7.5 mins by Michaelis-Menten equation analysis; type: ADME

Molecule: CCCCC/C=C\C/C=C\C/C=C\C/C=C\CCCC(=O)O
Ki [2]: 4.7 µM

Molecule: CCCCCCCC/C=C\CCCCCCCC(=O)[O-].[Na+]
Ki [2]: 16.7 µM

B1: Cytochrome P450 1A2 (Rattus norvegicus) (protein)
chain: T1 sequence (P04799 whole entry)
Km [15]: 3.8 µM
Vmax [15]: 4.65e-05 µmol/min
Km [16]: 13.6 µM
Vmax [16]: 3.97e-05 µmol/min

Continued, values first:

Retention_time [1]: 4.4 min
Molecule: CCNCC(=O)Nc1c(C)cccc1C

CLH [3]: 71 L/h
fraction unbound [4]: 0.98
Retention_time [5]: 13 min
fraction unbound [6]: 0.78
fraction unbound [7]: 0.98
fraction unbound [8]: 0.8
VmaxH [9]: 772 pmol/min
VmaxL [9]: 820 pmol/min
Km at 25 min ([10]; read-out: KmH): 6.6 µM
Km at 25 min ([10]; read-out: KmL): 881 µM
VmaxH [11]: 811 pmol/min
VmaxL [11]: 523 pmol/min
Km at 25 min ([12]; read-out: KmH): 27.8 µM
Km at 25 min ([12]; read-out: KmL): 867 µM
CL [13]: 933 L/h
Retention_time [14]: 3.6 min
Molecule: CCOc1ccc(NC(C)=O)cc1 [PHENACETIN]

Ki [2]: 13.6 µM
Molecule: CCCCC/C=C\C/C=C\CCCCCCCC(=O)O [SODIUM LINOLATE]
